No end group written: not given here.
What was measured:
[1] = system: CA1 neurons in hippocampal slices; assay: Insulin-induced depression of AMPA receptor-mediated EPSCs, whole-cell recording of CA1 neurons; type: cell-based, rat; details: 100 μg/ml in recording pipette; insulin 0.5 μM in bath
Description: GST-GluR23Y and GST-GluR23A were constructed by subcloning corresponding PCR fragments into pGEX 4T-1 vectors. GST fusion proteins were expressed in DH5α E. coli and purified from bacterial lysates according to the manufacturer's protocol (Pharmacia). Products were dialyzed in PBS and concentrated using Microcon-10 columns (Amicon) for intracellular application during whole-cell recordings.
Hippocampal slices (400 μm thickness) were prepared from Sprague-Dawley rats aged 16-26 postnatal days and perfused at room temperature with artificial cerebrospinal fluid containing (mM): 126 NaCl, 26 NaHCO3, 10 glucose, 3 KCl, 1.2 KH2PO4, 1 MgCl2, and 1 CaCl2, saturated with 95% O2/5% CO2^14. The recording pipettes (4-5 MO) were filled with solution containing (mM): 135 CsCl, 10 HEPES, 5 QX-314, 4 Mg-ATP, 2 MgCl2, 0.5 EGTA, 0.2 GTP and 0.1 CaCl2, pH 7.4, 310 mOsm. Whole-cell recording of CA1 neurons and the induction of LFS-LTD were performed as previously described.^14 […]

pp60 c-Src = pp60 c-Src (Homo sapiens, UniProt P12931); assay: In vitro kinase assay with active recombinant Src; type: biochemical; details: GST fusion protein as substrate
Source text: FIGS. 7 A-D. Insulin increases phosphorylation of tyrosine residues within the GluR2 carboxyl terminal (CT) region. A. In vitro tyrosine phosphorylation of the GluR2 CT. GST fusion proteins of the GluR1 CT (GST-GluR1CT), the GluR2 CT (GST-GluR2CT), residues 869-876 (YKEGYNVYG (SEQ ID NO. 4)) of the GluR2 CT (GST-GluR23Y), which contains a cluster of three tyrosine residues (Y869, Y873, and Y876) and the same amino acid stretch of the GluR2 CT with its tyrosine residues replaced by alanines (GST-GluR23A), along with the GST back bone (GST) as control, were incubated in the absence (−) or presence (+) of active recombinant pp60 c-Src. Phosphorylation products were immunoblotted using an anti-phosphotyrosine antibody (top panel). […] B. Expression levels of HA-GluR2 and HA-GluR23Y-3A (where tyrosines 869, 873 and 876 were mutated to alanines) 48 h after transient transfection into HEK293 cells were determined by a cell ELISA assay using permeabilized cells. C. HEK293 cells transiently transfected with HA-GluR1, HA-GluR2 or HA-GluR23Y-3A, along with empty vector (mock transfection) as control. Forty-eight hours later, the cells were treated with or without 0.5 μM insulin for 10 min. The lysates were then subjected to immunoprecipitation with an anti-HA antibody under denaturing conditions and immunoblotting with an anti-phosphotyrosine antibody (Top blot; IB: PY). […]

hippocampal neurons = assay: NMDA- or STS-induced apoptosis in cultured hippocampal neurons (Cell Death ELISA, 11-dUTP, PI staining); type: cell-based, rat; details: 100 μM NMDA + 10 μM glycine 1 h, read at 24 h; APV 50 μM; sucrose 0.4 M; myr-Dyn 100 μM; R2-CT 1 μM with Pep-1
Description: (§1) Hippocampi were rapidly removed from embryonic E l 8 Sprague Dawley rats and pooled prior to trituration. Hippocampal cell suspensions were plated onto poly-Dlysine coated culture dishes or glass coverslips and grown in Neurobasal™ media 10 (Invitrogen) for 14 days in vitro (DIV). The media from mature 14 DIV neurons was removed and replaced with 100 μM NMDA plus 10 μM glycine for 1 h at 37° C. prior to restoring neurons to the defined growth media. Twenty four hours after NMDA/glycine application, neurons were processed using cell death assays. NMDA-induced [Ca^2+]i responses were evoked and measured using methods described previously^26.
Apoptosis quantification: NMDA-induced apoptosis was quantified either using a Cell Death Detection Elisa Plus Kit (Roche Applied Sciences), which is based on the in vitro determination of cytoplasmic histone-associated DNA fragments, or using TdT mediated addition of biotinylated 11-dUTP to the free 3′-OH ends of DNA. Absorbance readings for both assays were carried out using a microplate reader.
Propidium Iodide (PI) staining of nuclei: After the induction of apoptosis, cells were fixed with 4% parafonnaldehyde/4% sucrose for 10 min followed by ice cold acetone for 1 min, and then stained with […] PI in Dulbecco's PBS for 30 min. Stained coverslips were mounted onto glass slides and viewed with a Leica fluorescence microscope to identify condensed nuclei. Cells with condensed nuclei were counted as apoptotic and the percentage of apoptotic cells to the total number of cells was calculated to give a semi-quantitative analysis, expressed as percentage of apoptosis.
A short peptide (YKEGYNVYGIE (SEQ ID NO. 2)) corresponding to amino acid residues from 869 to 879 of the C-terminus of GluR2 (R2-CT) was synthesized and incubated with a carrier protein (Pep-1)23 at a ratio of 1:20 in Dulbecco's modified Eagle's medium
(DMEM, Gibco) at 37° C. in a humidified atmosphere containing 5% CO2 for 30 min to allow the formation of R2-CT/Pep-1 complex. Hippocampal neurons (DW 12-14) were then overlaid with the preformed complex to reach a final R2-CT concentration of 1 μM and further incubated for 1 h before experiments commenced. Receptor Trafficking Assays

transferrin receptor = assay: Transferrin receptor endocytosis assay; type: cell-based, rat; details: fluorescently-labeled transferrin 30 min; sucrose 0.4 M; R2-CT+Pep-1 one hour prior to and during
Description: Transferrin receptor endocytosis assay: To assess the effect of endocytosis inhibitors on transferrin receptor endocytosis, hippocampal neurons were incubated with […] Alexa-A488 conjugated transferrin (Molecular Probes) for 30 min at 37° C. in the presence or absence of endocytosis inhibitors. Internalized receptors were then viewed with a Leica fluorescence microscope.

Akt = Akt phosphorylation at serine 473 (Western blot); type: cell-based, rat
Description: Immunoprecipitation and Western blotting were carried out essentially as previously reported.^14 Proteins from cerebral cortex, hippocampal slices, cultured hippocampal neurons or transfected HEK293 cells were solubilized in RIPA buffer containing either 1% SDS (plus 5 min boiling; denaturing conditions) or 1% DOC (non-denaturing conditions). For immunoprecipitation, 500 μg of protein from these tissue lysates was incubated with their respective antibodies in 500 μl of RIPA buffer for 4 h at 4° C. Protein A-sepharose was added to the mixture and incubated for an additional 2 h. The complex was isolated by centrifugation and washed three times. Proteins eluted from the sepharose beads were subjected to SDS-PAGE and immunoblotting using their respective antibodies. For sequential re-probing of the same blots, the membranes were stripped of the initial primary and secondary antibodies and subjected to immunoblotting with another antibody. Blots were developed using enhanced chemiluminescence detection (Amersham). Band intensities were quantified using Scion Image PC software.
The serine/threonine kinase Akt/PKB has been implicated in protecting neurons from apoptotic cell death^17 and inhibition of this kinase activity has been suspected to be involved in NMDA receptor-mediated apoptosis^18. […]

NMDA receptor channel = target: T1, NMDA receptor channel (Rattus norvegicus, UniProt P35439); assay: NMDA-evoked [Ca2+]i responses (Fura-2); type: cell-based; details: NMDA 100 μM, 500 ms puffs; sucrose 400 mM in bath
T1 construct: we loaded hippocampal neurons with the intracellular Ca2+ dye, Fura-2; endogenous in cells; host or cells: primary rat hippocampal neurons (E18 Sprague Dawley)
Description: as §1

rats = details: IV 60 min prior to test session; versus saline
Description: A. Rats maintained on a restricted feeding schedule were trained to lever-press for food pellets (45 mg) on a fixed-ratio 2 (FR2) schedule during 2-hour test sessions. Rats received IV injections of saline, GluR2-3A, or GluR2-3Y, in a counterbalanced order, 60 min prior to the test session. […] B. Rats were first trained to self-administer d-amphetamine (0.2 mg/infusion) via a jugular catheter on an FR2 schedule of reinforcement. Once responding in the 3 hour test sessions had stabilized, the rats were then trained on a Progressive Ratio Schedule in which successively more responses were required to obtain each successive reinforcement. […] Once stable Break point values were established, rats received IV injections of saline, GluR2-3A, or GluR2-3Y, in a counterbalanced order, 60 min prior to the test session.

Sprague-Dawley rats = assay: Transient focal ischemia model (MCA occlusion), TUNEL staining and neurological exam; type: in vivo, rat; details: 10 min prior to MCA occlusion; 3 nmoles/g
Description: The procedure was performed essentially as described previously (70). Briefly, adult male Sprague-Dawley rats between 280 and 320 g (20 h fasted weight) were anesthetized with an inhaled mixture of 4% isofluorane, in 30% oxygen balanced nitrous oxide, and maintained on 1.5% isofluorane. Bronchial secretions were minimized by administering 0.5 mg/kg of atropine intraperitoneally. […] The experimenter was blinded to the identity of the treatment groups for all surgeries and down-stream experiments. Under a dissection microscope, the common carotid artery (CCA), external carotid artery (ECA), and internal carotid artery (ICA) were exposed and dissected. […] Rectal temperature, and blood pressure measured with a tail cuff were measured before treatment, 15 min post injection, 50 min post injection, and 15 min post MCA occlusion. The plasma pH, O2, and CO2 were measured with a Rapidlab™ 348 blood gas analyzer (Bayer Diagnostics) in some animals to ensure that the gas flow rates used were appropriate and yielded reproducible blood gases. […]
At day 1 post MCAo rats were anesthetized with 1.5 mL of 25% urethane and were perfused with 100 mL of 0.9% saline followed by 120 mLs of 4% paraformaldehyde in PBS. […] The slices were scored for number of cells that stained positive for TMR-TUNEL per field of view at 10× magnification. […]

GSTAKEGANVAG [GST-GluR23A, mutant counterpart with tyrosines replaced by alanines, control, reference compound]
insulin-induced EPSC depression [1]: had no effect | tyrosine phosphorylation by recombinant Src kinase (pp60 c-Src): abolished

OC[C@H]1O[C@@](CO)(O[C@H]2O[C@H](CO)[C@@H](O)[C@H](O)[C@H]2O)[C@@H](O)[C@@H]1O [sucrose]
NMDA-induced apoptosis (hippocampal neurons): dramatically reduced | transferrin receptor endocytosis (transferrin receptor): eliminated | NMDA-induced reduction in S473 phosphorylated Akt (Akt; hypertonic sucrose): largely prevented | STS-induced reduction of Akt phosphorylation (Akt; sucrose treatment): had no effect on the reduction of Akt phosphorylation following STS treatment | NMDA-evoked [Ca2+]i responses (NMDA receptor channel): did not significantly alter NMDA-evoked [Ca^2+]i responses

N[C@@H](CCCP(=O)(O)O)C(=O)O [APV, reference compound]
NMDA-induced apoptosis (hippocampal neurons): fully blocked

YGRKKRRQRRRAKEGANVAGIE [Tat-GluR2-3A, YGRKKRRQRRR-AKEGANVAGIE, reference compound]
Break Point measures for drug-reward (rats): no significant differences in the Break Point measures for drug-reward | total number of responses for food reward (rats): no significant differences in total number of responses for food reward | mean arterial blood pressure (MABP) versus saline (Sprague-Dawley rats): significantly lower mean arterial blood pressure

Source: patent publication US9486472B2, “Methods for modulating neuronal responses” (UNIVERSITY OF BRITISH COLUMBIA CANADA, priority 2003, dated 2016)
